Data taken from patent US20090030055A1, “PKC activation as a means for enhancing s[sequence] secretion and improving cognition using bryostatin type compounds” (priority 2002, published 2009).
“Also recorded” adds a separate entry of the source.

Key:
PKC [1] = assay: PKC affinity of bryostatin 1 and bryologs; assay type: binding; details: times more potent than bryostatin-1
Description: Analogs of bryostatin, commonly referred to as bryologs, are one particular class of PKC activators that are suitable for use in the methods of the present invention. […] Structurally, they are all similar. While bryostatin-1 has two pyran rings and one 6-membered cyclic acetal, in most bryologs one of the pyrans of bryostatin-1 is replaced with a second 6-membered acetal ring. This modification […] the stability of bryologs, relative to bryostatin-1, for example, in both strong acid or base, but has little significance at physiological pH. Bryologs also have a lower molecular weight (ranging from about 600 to 755), as compared to bryostatin-1 (988), a property which facilitates transport across the blood-brain barrier.

PKC [2] = details: cited from earlier work
[3] = test system: sAPPα secretion, AD cell line AG06848; assay: sAPPα secretion immunoblot, AD fibroblasts; assay type: cell-based, human; details: for secretion of sAPPα: AD cell line AG06848, three hours of treatment, relative to DMSO
Procedure: (§1) Cultured skin fibroblasts were obtained from the Coriell Cell Repositories and grown using the general guidelines established for their culture with slight modifications (Cristofalo & Carpentier, 1988; Hirashima et al., 1996). The culture medium in which cells were grown was Dulbecco's modified Eagle's medium (GIBCO) supplemented with 10% fetal calf serum (Biofluids, Inc.). Fibroblasts from control cell lines (AC), cases AG07141 and AG06241, and a familial AD (FAD) case (AG06848) were utilized.
(§2) Cells grown to confluence in 6 cm Petri dishes for 5-7 days. On the day of the experiment, medium was replaced with DMEM without serum and left undisturbed for 2 h. Upon completion of the 2 hour serum deprivation; treatment was achieved by direct application to the medium of Bryo, BL and DMSO at the appropriate concentrations. (0.1 and 0.01 nM for bryostatin; 0.1 nM, 0.1 μM, and 1 μM BL). DMSO was less than 1% in all cases. In most cases, medium was collected and processed after 3 hours of treatment for sAPP secretion. Other time points were also used to establish a time course of secretion.
sAPP—Determinations/Measurements of sAPPα
The concentration of secreted APP was measured using conventional immunoblotting techniques, with minor modifications the protocol. Precipitated protein extracts from each dish/treatment were loaded to freshly prepared 10% acrylamide Tris-HCl minigels and separated by SDPAGE. The volume of sample loaded was corrected for total cell protein per dish. Proteins were then electrophoretically transferred to PVDF membranes. Membranes were saturated with 5% non-fat dry milk to block non-specific binding. Blocked membranes were incubated overnight at 4° C. with the commercially available antibody 6E10 (1:500), which recognizes sAPP-alpha in the conditioned medium (SENETEK). After washing, the membranes were incubated at room temperature with horseradish peroxidase conjugated anti-mouse IgG secondary antibody (Jackson's Laboratories). The signal was then detected using enhanced chemiluminescence followed by exposure of Hyperfilm ECL (Amersham). The band intensities were quantified by densitometry using a BioRad GS-800 calibrated scanning densitometer and Multianalyst software (BioRad).

[4] = test system: sAPPα secretion, control cell lines AG07141 and AG06241; assay: sAPPα secretion immunoblot, control fibroblasts; assay type: cell-based, human; details: two control cell lines pooled, 0.1 nM, compared to DMSO alone
Procedure: as §1
as §2, with “In most cases, medium was collected and processed after 3 hours of treatment for sAPP secretion. Other time points were also used to establish a time course of secretion.” left out
The concentration of secreted APP was measured using conventional immunoblotting techniques, with minor modifications the protocol. […] The signal was then detected using enhanced chemiluminescence followed by exposure of Hyperfilm ECL (Amersham). The band intensities were quantified by densitometry using a BioRad GS-800 calibrated scanning densitometer and Multianalyst software (BioRad).

PKC-α = biological target: T1, PKC-α (Homo sapiens, UniProt P17252); assay: Immunoblot assay for PKC translocation, α isoenzyme; assay type: cell-based
T1 construct: endogenous in cells; host or cells: human fibroblasts (AD patient and control lines)
Procedure: Immunoblot experiments were conducted using well-established procedures (Dunbar, 1994). Cells were grown to confluency (˜90%) in 6 cm Petri dishes. […] Fibroblasts were washed twice with ice-cold PBS, scraped in PBS, and collected by low-speed centrifugation. The pellets were re-suspended in the following homogenization buffer: 20 mM Tris-HCl, pH 7.5, 2 mM EDTA, 2 mM EGTA, 5 mM DTT, 0.32 M sucrose, and protease inhibitor cocktail (Sigma). […] The pellets were homogenized in the same buffer containing 1.0% Triton X-100, incubated in ice for 45 minutes, and centrifuged at ˜12,000 g for 20 minutes. The supernatant from this batch was used as the membranous fraction. After protein determination, 20 μg of protein were diluted in 2× electrophoresis sample buffer (Novex), boiled for 5 minutes, run on 10% acrylamide gel, and transferred electrophoretically to a PVDF membrane. The membrane was saturated with 5% milk blocker by incubating it at room temperature for an hour. The primary antibody for PKC isoform (Transduction Laboratories) was diluted (1:1000) in blocking solution and incubated with the membrane overnight at 4° C. […] The band intensities were quantified by densitometry using a BioRad GS-800 calibrated scanning densitometer and Multianalyst software (BioRad).

Wistar albino rats = assay: Morris Water Maze; assay type: in vivo; details: for learning, escape latency from trial to trial: i.c.v. 1 μl/site of 2 μM, vs vehicle control
Description: (See, for example, Hollister, L. E., 1990, Pharmacopsychiat., 23, (Suppl II) 33-36). The available animal models of memory loss and impaired learning involve measuring the ability of animals to remember a discrete event. These tests include the Morris Water Maze and the passive avoidance procedure. In the Morris Water Maze, animals are allowed to swim in a tank divided into four quadrants, only one of which has a safety platform beneath the water. The platform is removed and the animals are tested for how long they search the correct quadrant verse the incorrect quadrants. In the passive avoidance procedure the animal remembers the distinctive environment in which a mild electric shock is delivered and avoids it on a second occasion. A variant of the passive avoidance procedure makes use of a rodent's preference for dark enclosed environments over light open ones. Further discussion can be found in Crawley, J. N., 1981, Pharmacol. Biochem. Behav., 15, 695-699; Costall, B. et al., 1987, Neuropharmacol., 26, 195-200; Costall, B. et at, 1989, Pharmacol. Biochem. Behav., 32, 777-785; Barnes, J. M. et al., 1989, Br. J. Pharmacol., 98 (Suppl) 693P; Barnes, J. M. et al., 1990, Pharmacol. Biochem. Behav., 35, 955-962.
Wistar albino rats (n=20) weighing between 220-250 g were housed for one week with free access to food and water. Stainless steel cannulas were placed bilaterally in each rat, following previously described procedures (49). […] Subsequently, animals were assigned randomly to experimental and control groups. At least 24 h prior to treatment and training, all animals were pre-exposed to the MWM experimental situation by placing them in the water and allowed to swim for 120 s. The training followed standard procedures (49) and consisted of two trials per day for 4 consecutive days. […] The control group received the same volume of vehicle alone, on identical schedule. On the fifth day, the platform was removed and the retention test was conducted. Animals' movements and escape latencies were recorded with an automatic tracking system. […] Acquisition of memory was measured as time spent in the relevant quadrant (5th day). […] Bryostatin-1 is capable of being used at concentrations to improve cognition that are 300 to 300,000 times lower than the concentration used to treat tumors.

[5] = test system: double transgenic mice carrying the V7171 mutation and a Presenilin-1 (PS1) mutation; assay: Double transgenic mice (V7171 and Presenilin-1 mutation) treated with Bryostatin-1; assay type: in vivo; details: 40 μg/k.g. i.p. three times a week
Procedure: A second transgenic study using similar procedures/testing and protocol was performed using double transgenic mice carrying the V7171 mutation and a Presenilin-1 (PS1) mutation, which causes accelerated amyloid formation, with the following major differences. Approximately 40 mice including both treated and controls were utilized. Treatment began at approximately 3 weeks of age and consisted of treatments with 40 μg/k.g. i.p. three times a week using Bryostatin-1. Controls were given vehicle alone. The treatment continued for approximately seven months before the morbidity rate of the non-treated animals necessitated termination of the experiment (see FIG. 10).

[6] = humans; cited from earlier work
[7] = approximately seven months, vs vehicle

Question: For `CCCCCCCC(=O)O[C@H]1/C(=C/C(=O)OC)C[C@H]2C[C@H](CO)OC(=O)C[C@H](O)C[C@@H]3CCC[C@H](C[C@@H]4CCO[C@H](/C=C/C(C)(C)[C@]1(O)O2)O4)O3` [Analog 1], which “potency relative to bryostatin-1” value (PKC [1]) is on record?
Answer: about 100 times

Question: And the “affinity for PKC, in words” value (PKC [2])?
Answer: highest affinity

Question: What about the Ki (PKC [2]; read-out: PKC Affin) of the same compound?
Answer: 250 pM

Question: What does the source list for `CCC/C=C/C=C/C(=O)O[C@H]1/C(=C/C(=O)OC)C[C@H]2C[C@H]([C@@H](C)O)OC(=O)C[C@H](O)C[C@@H]3C[C@H](OC(C)=O)C(C)(C)[C@](O)(C[C@@H]4C/C(=C/C(=O)OC)C[C@H](/C=C/C(C)(C)[C@]1(O)O2)O4)O3` [Bryostatin 1]?
Answer: sAPPα secretion, time-course ([3]; 0.01 nM compared with 0.1 nM, 2 and 3 h of incubation): undistinguishable from the higher; sAPPα secretion, time-course ([3]; 0.01 nM, only after 60 min of incubation): robust enhancement; sAPPα secretion, time-course ([3]; 0.1 nM, 2 and 3 h compared with 60 min): did not substantially differ from 60 min incubation; sAPPα secretion, time-course ([3]; 0.1 nM, 30 and 60 min): Progressive and proportional increases; sAPPα secretion, time-course ([3]; 0.1 nM, 15 min incubation): marked increase; secretion of sAPPα ([3]; 0.1 nM, listed as Bryostatin): dramatically enhanced; secretion of sAPPα ([3]; 0.1 nM, listed as bryostatin): dramatic increase; secretion of sAPPα ([4]; listed as Bryostatin): effective in enhancing secretion; secretion of sAPPα ([4]; listed as bryostatin): enhanced the secretion of sAPPα; time of maximal PKC translocation (measure of activation) (PKC-α): 30 min; time to improved cognition over control rats (Wistar albino rats; i.c.v.): ≤ 2 days; learning, escape latency from trial to trial (Wistar albino rats; listed as bryostatin): significantly faster; learning, escape latency from trial to trial (Wistar albino rats; listed as bryostatin 1): significantly lower; memory or retention, time spent in the relevant quadrant (Wistar albino rats; i.c.v., 5th day, platform removed, vs controls): significantly enhanced; percent plaque load, Thioflavin S staining ([5]; approximately seven months, vs controls): decrease in percent plaque load; behavioural differences, water testing [5, 7]: not significant; total APP [5, 7]: overall lower amount; also recorded: noticeable change; life span, life percentage over time ([5]; vs controls, listed as Bryostatin): increase in life span; life span, life percentage over time ([5]; vs controls, listed as Bryostatin-1): greater life percentage over time; main adverse reaction [6]: myalgia; maximum dose, limited by myalgia [6]: 40 mg/m2
